For 15 compounds, IC50 results are on record in patent US12371428B2 (Exelixis, Inc., priority 2019, dated 2025).

Like-named read-outs stand apart in the source and are kept apart here.

Holding throughout (type): cell-based
Experiment [1] addresses KDR (phospho-KDR, VEGF165-stimulated HUVEC cells) (Homo sapiens (Human), UniProt P35968). The experiment is described as follows: KDR autophosphorylation ELISA in HUVEC cells (Example G). The settings on record: cellular activity. Put shortly:
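Inhibition of VEGF165-driven KDR autophosphorylation is measured in primary human umbilical vein endothelial cells after 24 h serum deprivation. Compound preincubation lasts 1 h before a 5-minute challenge with 100 ng/mL ligand, and phosphorylated receptor is then measured by ELISA in the lysates.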
For orientation: ELISA stands for enzyme-linked immunosorbent assay.

Experiment [2] concerns the target Met (phospho-Met, HGF-stimulated PC-3 prostate cancer cells) (Homo sapiens (Human), UniProt P08581). The experiment is described as follows: Met autophosphorylation ELISA in PC-3 cells (Example F). To be noted: cellular activity, read-out: c-Met IC50. Put shortly: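 Serum-starved (3 h) PC-3 cells were treated 1 h with compounds (8-point curve, 0.3% DMSO), then stimulated with 100 ng/mL human HGF for 10 min. Lysate phospho-Met (panTyr) was measured by sandwich ELISA, normalised to DMSO and reference-inhibitor controls. IC50 came from 4-parameter logistic fit.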

The target in experiment [3] is Mer (phospho-Mer, MERTK-transfected 293A cells) (Homo sapiens (Human), UniProt Q12866). The experiment is described as follows: Mer autophosphorylation ELISA in transient transfected 293A cells (Example H). The settings on record: cellular activity. Put shortly: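 MERTK-transfected 293A; 8-pt dose, 1 h, serum-free, 0.3% DMSO. Cold lysis with orthovanadate and protease/phosphatase inhibitors. Phospho-Mer by DuoSet IC ELISA vs phospho-Mer standard. IC50: 4-PL fit; DMSO = 100%, reference inhibitor = 0%.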

The target in experiment [4] is AXL (phospho-AXL, Gas6-stimulated A-172 glioblastoma cells) (Homo sapiens (Human), UniProt P30530). Nature of the experiment: AXL autophosphorylation ELISA in A-172 cells (Example E). The settings on record: cellular activity, read-out: Axl IC50. Put shortly: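 Phospho-AXL was measured by ELISA in lysates of Gas6-stimulated A-172 cells, starved 24 h in serum-free medium and exposed 1 h to an 8-point compound dilution at 0.3% DMSO.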

Where [5] appears, read: KDR autophosphorylation ELISA in HUVEC cells.
[6] abbreviates: Met autophosphorylation ELISA in PC-3 cells.
The mark [7] stands for this setting: Mer autophosphorylation ELISA in transient transfected 293A cells.
The mark [8] stands for this setting: AXL autophosphorylation ELISA in A-172 cells.

Sequence of Met (phospho-Met, HGF-stimulated PC-3 prostate cancer cells) (P08581 25-1390): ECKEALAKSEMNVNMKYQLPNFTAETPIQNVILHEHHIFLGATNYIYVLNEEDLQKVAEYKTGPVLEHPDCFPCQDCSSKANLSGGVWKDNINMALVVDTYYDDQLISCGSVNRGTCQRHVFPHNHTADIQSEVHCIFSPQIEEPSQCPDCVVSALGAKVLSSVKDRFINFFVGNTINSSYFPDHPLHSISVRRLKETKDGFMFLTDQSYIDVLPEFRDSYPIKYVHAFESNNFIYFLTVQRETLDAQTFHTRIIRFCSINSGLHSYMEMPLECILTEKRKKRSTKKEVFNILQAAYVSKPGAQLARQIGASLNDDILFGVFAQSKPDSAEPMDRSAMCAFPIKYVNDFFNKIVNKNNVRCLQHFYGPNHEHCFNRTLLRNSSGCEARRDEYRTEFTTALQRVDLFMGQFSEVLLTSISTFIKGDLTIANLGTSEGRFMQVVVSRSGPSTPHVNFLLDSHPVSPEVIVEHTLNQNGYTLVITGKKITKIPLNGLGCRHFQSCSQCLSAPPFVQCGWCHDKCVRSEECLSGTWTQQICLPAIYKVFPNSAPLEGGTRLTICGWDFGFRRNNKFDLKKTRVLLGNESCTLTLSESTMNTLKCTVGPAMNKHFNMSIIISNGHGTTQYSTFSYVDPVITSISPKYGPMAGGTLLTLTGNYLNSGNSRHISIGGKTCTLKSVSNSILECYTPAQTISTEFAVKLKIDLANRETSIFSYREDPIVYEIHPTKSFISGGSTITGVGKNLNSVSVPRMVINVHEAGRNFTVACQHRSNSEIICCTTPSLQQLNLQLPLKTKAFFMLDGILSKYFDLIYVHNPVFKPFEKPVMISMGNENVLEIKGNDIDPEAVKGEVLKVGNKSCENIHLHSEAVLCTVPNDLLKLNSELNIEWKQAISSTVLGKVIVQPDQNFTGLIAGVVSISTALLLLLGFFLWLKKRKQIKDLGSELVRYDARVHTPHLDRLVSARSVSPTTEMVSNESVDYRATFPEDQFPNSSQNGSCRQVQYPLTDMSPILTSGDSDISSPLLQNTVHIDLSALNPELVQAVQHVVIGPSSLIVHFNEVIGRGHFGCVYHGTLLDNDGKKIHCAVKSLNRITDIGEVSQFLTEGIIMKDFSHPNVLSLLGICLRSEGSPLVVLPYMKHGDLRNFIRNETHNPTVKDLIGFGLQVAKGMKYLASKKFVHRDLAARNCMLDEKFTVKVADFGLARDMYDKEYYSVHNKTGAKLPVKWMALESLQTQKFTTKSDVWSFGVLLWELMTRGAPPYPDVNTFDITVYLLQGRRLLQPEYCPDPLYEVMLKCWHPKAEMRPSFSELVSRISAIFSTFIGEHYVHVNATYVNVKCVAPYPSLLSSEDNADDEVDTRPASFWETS
Sequence of KDR (phospho-KDR, VEGF165-stimulated HUVEC cells) (P35968 20-1356): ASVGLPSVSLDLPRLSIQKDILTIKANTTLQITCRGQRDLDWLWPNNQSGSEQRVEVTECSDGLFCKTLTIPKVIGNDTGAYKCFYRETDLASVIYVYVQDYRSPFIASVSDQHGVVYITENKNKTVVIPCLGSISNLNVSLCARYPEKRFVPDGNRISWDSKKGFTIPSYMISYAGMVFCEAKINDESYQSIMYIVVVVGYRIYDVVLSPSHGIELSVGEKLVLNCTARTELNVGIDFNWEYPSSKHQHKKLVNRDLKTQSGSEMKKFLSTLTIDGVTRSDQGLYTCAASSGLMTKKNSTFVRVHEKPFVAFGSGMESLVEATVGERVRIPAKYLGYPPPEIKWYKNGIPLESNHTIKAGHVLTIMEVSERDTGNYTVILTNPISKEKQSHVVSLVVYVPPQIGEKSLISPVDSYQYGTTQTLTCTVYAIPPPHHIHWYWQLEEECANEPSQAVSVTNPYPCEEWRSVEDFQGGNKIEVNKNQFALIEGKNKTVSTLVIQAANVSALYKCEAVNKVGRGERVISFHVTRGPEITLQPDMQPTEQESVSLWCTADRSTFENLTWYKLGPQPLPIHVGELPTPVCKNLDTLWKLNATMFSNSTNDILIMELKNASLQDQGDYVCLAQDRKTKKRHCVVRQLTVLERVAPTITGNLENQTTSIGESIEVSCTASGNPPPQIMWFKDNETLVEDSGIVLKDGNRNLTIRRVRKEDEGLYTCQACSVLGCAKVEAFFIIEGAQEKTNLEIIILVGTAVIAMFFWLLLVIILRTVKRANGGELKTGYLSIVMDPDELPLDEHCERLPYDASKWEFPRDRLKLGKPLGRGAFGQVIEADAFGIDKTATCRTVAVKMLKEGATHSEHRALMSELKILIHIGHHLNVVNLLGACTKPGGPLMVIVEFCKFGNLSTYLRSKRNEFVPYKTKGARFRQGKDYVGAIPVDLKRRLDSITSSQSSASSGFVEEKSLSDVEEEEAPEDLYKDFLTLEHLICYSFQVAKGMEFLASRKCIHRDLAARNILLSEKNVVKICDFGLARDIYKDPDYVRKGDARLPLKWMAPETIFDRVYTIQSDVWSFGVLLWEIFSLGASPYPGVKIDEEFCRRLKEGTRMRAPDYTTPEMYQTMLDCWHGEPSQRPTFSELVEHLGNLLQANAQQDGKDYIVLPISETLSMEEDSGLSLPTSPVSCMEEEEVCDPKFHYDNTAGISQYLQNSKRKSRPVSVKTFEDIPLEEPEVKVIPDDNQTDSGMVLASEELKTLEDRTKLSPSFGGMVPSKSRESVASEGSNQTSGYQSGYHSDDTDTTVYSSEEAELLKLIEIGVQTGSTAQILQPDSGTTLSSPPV
Sequence of AXL (phospho-AXL, Gas6-stimulated A-172 glioblastoma cells) (P30530 26-894): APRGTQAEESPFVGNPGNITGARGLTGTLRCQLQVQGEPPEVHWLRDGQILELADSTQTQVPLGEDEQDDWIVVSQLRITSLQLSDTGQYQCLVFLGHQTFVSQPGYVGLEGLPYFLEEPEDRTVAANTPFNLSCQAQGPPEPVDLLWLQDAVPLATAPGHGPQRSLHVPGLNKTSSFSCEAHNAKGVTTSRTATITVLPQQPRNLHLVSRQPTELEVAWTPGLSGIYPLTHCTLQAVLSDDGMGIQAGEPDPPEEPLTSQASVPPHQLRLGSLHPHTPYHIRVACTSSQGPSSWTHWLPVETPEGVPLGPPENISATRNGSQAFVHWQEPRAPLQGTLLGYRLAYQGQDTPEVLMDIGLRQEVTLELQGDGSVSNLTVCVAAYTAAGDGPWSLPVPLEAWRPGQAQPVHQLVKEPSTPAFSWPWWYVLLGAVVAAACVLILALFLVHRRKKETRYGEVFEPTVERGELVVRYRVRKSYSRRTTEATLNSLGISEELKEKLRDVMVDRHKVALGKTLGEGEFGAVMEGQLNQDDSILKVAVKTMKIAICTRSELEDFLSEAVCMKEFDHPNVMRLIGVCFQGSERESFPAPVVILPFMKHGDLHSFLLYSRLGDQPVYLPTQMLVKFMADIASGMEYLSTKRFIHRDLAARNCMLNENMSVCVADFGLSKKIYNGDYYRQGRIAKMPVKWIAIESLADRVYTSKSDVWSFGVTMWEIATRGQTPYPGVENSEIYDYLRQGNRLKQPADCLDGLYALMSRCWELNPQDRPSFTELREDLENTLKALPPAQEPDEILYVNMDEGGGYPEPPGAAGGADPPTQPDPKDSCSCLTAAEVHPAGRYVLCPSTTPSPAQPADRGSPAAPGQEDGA
Sequence of Mer (phospho-Mer, MERTK-transfected 293A cells) (Q12866 21-999): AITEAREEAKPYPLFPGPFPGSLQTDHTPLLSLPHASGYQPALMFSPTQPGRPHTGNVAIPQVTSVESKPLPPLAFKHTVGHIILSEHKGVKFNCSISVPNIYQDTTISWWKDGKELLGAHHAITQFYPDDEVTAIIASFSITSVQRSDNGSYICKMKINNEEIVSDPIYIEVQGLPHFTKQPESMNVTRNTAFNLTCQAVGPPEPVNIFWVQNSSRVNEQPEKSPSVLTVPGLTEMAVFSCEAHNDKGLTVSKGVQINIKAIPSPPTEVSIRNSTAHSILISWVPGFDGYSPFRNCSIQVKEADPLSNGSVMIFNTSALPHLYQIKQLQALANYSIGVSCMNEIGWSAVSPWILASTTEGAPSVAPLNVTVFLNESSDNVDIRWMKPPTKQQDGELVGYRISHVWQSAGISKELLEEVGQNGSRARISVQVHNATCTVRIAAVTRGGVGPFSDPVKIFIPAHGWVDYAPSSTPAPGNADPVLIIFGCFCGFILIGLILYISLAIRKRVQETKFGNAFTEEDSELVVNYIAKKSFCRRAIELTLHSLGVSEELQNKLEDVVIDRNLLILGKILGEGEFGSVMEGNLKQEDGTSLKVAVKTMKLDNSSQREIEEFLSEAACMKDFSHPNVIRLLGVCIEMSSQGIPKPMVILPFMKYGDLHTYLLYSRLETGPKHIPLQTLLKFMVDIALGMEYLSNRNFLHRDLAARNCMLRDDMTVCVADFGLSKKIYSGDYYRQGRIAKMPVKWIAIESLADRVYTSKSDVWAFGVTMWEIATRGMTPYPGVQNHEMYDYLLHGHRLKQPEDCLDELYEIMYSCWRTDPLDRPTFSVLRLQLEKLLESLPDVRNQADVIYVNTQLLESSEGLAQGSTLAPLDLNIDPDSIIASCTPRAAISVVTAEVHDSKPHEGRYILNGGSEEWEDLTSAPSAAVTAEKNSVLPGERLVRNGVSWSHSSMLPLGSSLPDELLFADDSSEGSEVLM

Regarding `COc1cc2nccc(Oc3ccc(NC(=O)c4c5n(c(C)c(-c6ccc(F)cc6C)c4=O)CCOC5)cc3F)c2nc1OC` [Compound 782, N-[4-[(6,7-dimethoxy-1,5-naphthyridin-4-yl)oxy]-3-fluorophenyl]-7-(4-fluoro-2-methylphenyl)-6-methyl-8-oxo-3,4-dihydro-1H-pyrido[2,1-c][1,4]oxazine-9-carboxamide], the IC50 in experiment [1] (setting [5]) is above 300 nM; in experiment [2] (setting [6]), below 100 nM; in experiment [3] (setting [7]), below 100 nM; in experiment [4] (setting [8]), below 100 nM.
Consider `COc1cnc2c(Oc3ccc(NC(=O)c4c5n(c(C)c(-c6ccc(F)cc6)c4=O)CCOC5)cc3F)ccnc2c1` [Compound 783, N-[3-fluoro-4-[(7-methoxy-1,5-naphthyridin-4-yl)oxy]phenyl]-7-(4-fluorophenyl)-6-methyl-8-oxo-3,4-dihydro-1H-pyrido[2,1-c][1,4]oxazine-9-carboxamide], for which the IC50 was above 300 nM in experiment [1] (setting [5]), below 100 nM in experiment [2] (setting [6]), below 100 nM in experiment [3] (setting [7]) and below 100 nM in experiment [4] (setting [8]).
Take `COc1cnc2c(Oc3ccc(NC(=O)c4c5n(c(C)c(-c6ccc(F)cc6C)c4=O)CCOC5)cc3F)ccnc2c1` [Compound 784, N-[3-fluoro-4-[(7-methoxy-1,5-naphthyridin-4-yl)oxy]phenyl]-7-(4-fluoro-2-methylphenyl)-6-methyl-8-oxo-3,4-dihydro-1H-pyrido[2,1-c][1,4]oxazine-9-carboxamide]: the IC50 in experiment [1] (setting [5]) is above 300 nM; in experiment [2] (setting [6]), below 100 nM; in experiment [3] (setting [7]), below 100 nM; in experiment [4] (setting [8]), below 100 nM.
Turning to `COCCc1nc(C)c(-c2ccc(F)cc2)c(O)c1C(=O)Nc1ccc(Oc2ccnc3cc(OC)c(OC)nc23)c(F)c1` [Compound 785, N-[4-[(6,7-dimethoxy-1,5-naphthyridin-4-yl)oxy]-3-fluorophenyl]-5-(4-fluorophenyl)-4-hydroxy-2-(2-methoxyethyl)-6-methylpyridine-3-carboxamide], the IC50 in experiment [1] (setting [5]), in experiment [2] (setting [6]), in experiment [3] (setting [7]) and in experiment [4] (setting [8]) was below 100 nM in each case.
As for `COc1cc(F)ccc1-c1cnc(C)c(C(=O)Nc2ccc(Oc3ccnc4cc(OC)c(OC)nc34)c(F)c2)c1O` [Compound 792, N-[4-[(6,7-dimethoxy-1,5-naphthyridin-4-yl)oxy]-3-fluorophenyl]-5-(4-fluoro-2-methoxyphenyl)-4-hydroxy-2-methylpyridine-3-carboxamide], the IC50 in experiment [1] (setting [5]), in experiment [2] (setting [6]), in experiment [3] (setting [7]) and in experiment [4] (setting [8]) was below 100 nM in each case.
With `COc1cnc2c(Oc3ccc(NC(=O)c4c(C)ncc(-c5ccc(F)cc5OC)c4O)cc3F)ccnc2c1` [Compound 793, N-[3-fluoro-4-[(7-methoxy-1,5-naphthyridin-4-yl)oxy]phenyl]-5-(4-fluoro-2-methoxyphenyl)-4-hydroxy-2-methylpyridine-3-carboxamide], the IC50 in experiment [1] (setting [5]), in experiment [2] (setting [6]), in experiment [3] (setting [7]) and in experiment [4] (setting [8]) was below 100 nM each time.
Turning to `COc1cc2nccc(Oc3ccc(NC(=O)c4c(C)ncc(-c5ccc(F)c(C)c5)c4O)cc3F)c2nc1OC` [Compound 794, N-[4-[(6,7-dimethoxy-1,5-naphthyridin-4-yl)oxy]-3-fluorophenyl]-5-(4-fluoro-3-methylphenyl)-4-hydroxy-2-methylpyridine-3-carboxamide], the IC50 in experiment [1] (setting [5]), in experiment [2] (setting [6]), in experiment [3] (setting [7]) and in experiment [4] (setting [8]) was below 100 nM in each case.
For the compound `COc1cnc2c(Oc3ccc(NC(=O)c4c(C)ncc(-c5ccc(F)c(C)c5)c4O)cc3F)ccnc2c1` [Compound 795, N-[3-fluoro-4-[(7-methoxy-1,5-naphthyridin-4-yl)oxy]phenyl]-5-(4-fluoro-3-methylphenyl)-4-hydroxy-2-methylpyridine-3-carboxamide], the 50% inhibitory concentration (IC50) in experiment [1] (setting [5]), in experiment [2] (setting [6]), in experiment [3] (setting [7]) and in experiment [4] (setting [8]) was below 100 nM in each case.
Consider `COc1cc2nccc(Oc3ccc(NC(=O)c4c(C)ncc(-c5ccc(F)c(F)c5)c4O)cc3F)c2nc1OC` [Compound 796, 5-(3,4-difluorophenyl)-N-[4-[(6,7-dimethoxy-1,5-naphthyridin-4-yl)oxy]-3-fluorophenyl]-4-hydroxy-2-methylpyridine-3-carboxamide], for which the IC50 in experiment [1] (setting [5]), in experiment [2] (setting [6]), in experiment [3] (setting [7]) and in experiment [4] (setting [8]) was below 100 nM in each case.
For the compound `COc1cnc2c(Oc3ccc(NC(=O)c4c(C)ncc(-c5ccc(F)c(F)c5)c4O)cc3F)ccnc2c1` [Compound 797, 5-(3,4-difluorophenyl)-N-[3-fluoro-4-[(7-methoxy-1,5-naphthyridin-4-yl)oxy]phenyl]-4-hydroxy-2-methylpyridine-3-carboxamide], the IC50 in experiment [1] (setting [5]), in experiment [2] (setting [6]), in experiment [3] (setting [7]) and in experiment [4] (setting [8]) was below 100 nM each time.
As for `COc1cc2nccc(Oc3ccc(NC(=O)c4c5n(cc(-c6ccc(F)cc6)c4=O)CCOC5)cc3F)c2nc1OC` [Compound 808, N-[4-[(6,7-dimethoxy-1,5-naphthyridin-4-yl)oxy]-3-fluorophenyl]-7-(4-fluorophenyl)-8-oxo-3,4-dihydro-1H-pyrido[2,1-c][1,4]oxazine-9-carboxamide], the IC50 is above 300 nM in experiment [1] (HUVEC cells), below 100 nM in experiment [2] (PC-3 cells), below 100 nM in experiment [3] (transfected 293A cells) and below 100 nM in experiment [4] (A-172 cells).
Take `COc1cnc2c(Oc3ccc(NC(=O)c4c5n(cc(-c6ccc(F)cc6)c4=O)CCOC5)cc3F)ccnc2c1` [Compound 809, N-[3-fluoro-4-[(7-methoxy-1,5-naphthyridin-4-yl)oxy]phenyl]-7-(4-fluorophenyl)-8-oxo-3,4-dihydro-1H-pyrido[2,1-c][1,4]oxazine-9-carboxamide]: the IC50 in experiment [1] (HUVEC cells) was above 300 nM; in experiment [2] (PC-3 cells), below 100 nM; in experiment [3] (transfected 293A cells), below 100 nM; in experiment [4] (A-172 cells), below 100 nM.
Turning to `COc1cc(F)ccc1-c1cn(CC(F)F)c(C)c(C(=O)Nc2ccc(Oc3ccnc4cc(OC)c(OC)nc34)c(F)c2)c1=O` [Compound 810, 1-(2,2-difluoroethyl)-N-[4-[(6,7-dimethoxy-1,5-naphthyridin-4-yl)oxy]-3-fluorophenyl]-5-(4-fluoro-2-methoxyphenyl)-2-methyl-4-oxopyridine-3-carboxamide], the IC50 in experiment [1] (HUVEC cells), in experiment [2] (PC-3 cells), in experiment [3] (transfected 293A cells) and in experiment [4] (A-172 cells) was below 100 nM each time.
In the case of `COc1cnc2c(Oc3ccc(NC(=O)c4c(C)n(CC(F)F)cc(-c5ccc(F)cc5OC)c4=O)cc3F)ccnc2c1` [Compound 811, 1-(2,2-difluoroethyl)-N-[3-fluoro-4-[(7-methoxy-1,5-naphthyridin-4-yl)oxy]phenyl]-5-(4-fluoro-2-methoxyphenyl)-2-methyl-4-oxopyridine-3-carboxamide], the IC50 in experiment [1] (HUVEC cells), in experiment [2] (PC-3 cells), in experiment [3] (transfected 293A cells) and in experiment [4] (A-172 cells) was below 100 nM each time.
For `COc1cc2nccc(Oc3ccc(NC(=O)c4c(C)n(CC(F)F)cc(-c5ccc(F)c(C)c5)c4=O)cc3F)c2nc1OC` [Compound 812, 1-(2,2-difluoroethyl)-N-[4-[(6,7-dimethoxy-1,5-naphthyridin-4-yl)oxy]-3-fluorophenyl]-5-(4-fluoro-3-methylphenyl)-2-methyl-4-oxopyridine-3-carboxamide], the IC50 is above 300 nM in experiment [1] (HUVEC cells), below 100 nM in experiment [2] (PC-3 cells), below 100 nM in experiment [3] (transfected 293A cells) and below 100 nM in experiment [4] (A-172 cells).

The IC50 is the concentration that inhibits the measured activity by half.
